Laboratory results from ChEMBL document CHEMBL1201862, “PubChem BioAssay data set” (2004).
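A five-concentration, 48-hour dose response in 96-well plates underlies each endpoint, interpolated linearly between surrounding concentrations. Here, GI50 denotes the concentration required for 50% inhibition of growth.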 Active and inactive are the calls of the source. Cut-off read from the data, not from the text of the source: active = GI50 up to about 1.1 µM and inactive = higher.

Legend:
Assay in all cases: growth of human tumour cells (NCI), 48 h
786-0 = test system: 786-0
A549 = test system: A549
ACHN = test system: ACHN
BT-549 = test system: BT-549
CAKI-1 = test system: CAKI-1
CCRF-CEM = test system: CCRF-CEM
COLO 205 = test system: COLO 205
DU-145 = test system: DU-145
EKVX = test system: EKVX
HCT-116 = test system: HCT-116
HCT-15 = test system: HCT-15
HL-60 = test system: HL-60
HOP-62 = test system: HOP-62
HOP-92 = test system: HOP-92
HT-29 = test system: HT-29
Hs-578T = test system: Hs-578T
IGROV-1 = test system: IGROV-1
K562 = test system: K562
KM12 = test system: KM12
LOX IMVI = test system: LOX IMVI
M14 = test system: M14
MCF7 = test system: MCF7
MDA-MB-231 = test system: MDA-MB-231
MDA-MB-435 = test system: MDA-MB-435
MOLT-4 = test system: MOLT-4
Malme-3M = test system: Malme-3M
NCI-H226 = test system: NCI-H226
NCI-H23 = test system: NCI-H23
NCI-H460 = test system: NCI-H460
NCI-H522 = test system: NCI-H522
NCI/ADR-RES = test system: NCI/ADR-RES
OVCAR-3 = test system: OVCAR-3
OVCAR-4 = test system: OVCAR-4
OVCAR-5 = test system: OVCAR-5
OVCAR-8 = test system: OVCAR-8
PC-3 = test system: PC-3
RPMI-8226 = test system: RPMI-8226
RXF 393 = test system: RXF 393
SF-268 = test system: SF-268
SF-295 = test system: SF-295
SF-539 = test system: SF-539
SK-MEL-28 = test system: SK-MEL-28
SK-MEL-2 = test system: SK-MEL-2
SK-MEL-5 = test system: SK-MEL-5
SK-OV-3 = test system: SK-OV-3
SN12C = test system: SN12C
SNB-19 = test system: SNB-19
SNB-75 = test system: SNB-75
SR = test system: SR
SW-620 = test system: SW-620
T47D = test system: T47D
TK-10 = test system: TK-10
U-251 = test system: U-251
UACC-257 = test system: UACC-257
UACC-62 = test system: UACC-62
UO-31 = test system: UO-31
HCC 2998 = test system: HCC 2998
MDA-N = test system: MDA-N
A498 = test system: A498

COc1ccc2c(C)cc(N/N=C/c3ccc(OC)c4ccccc34)nc2c1 was tested, and the GI50 (786-0) was 12.1 µM (inactive), the GI50 (A549) was 18.6 µM (inactive) and the GI50 (ACHN) was 4.48 µM (inactive). For the same compound, the GI50 (BT-549) was 20.1 µM (inactive), the GI50 (CAKI-1) was 13.4 µM (inactive) and the GI50 (CCRF-CEM) was 1.93 µM (inactive). For the same compound, the GI50 (COLO 205) was 16.7 µM (inactive), the GI50 (DU-145) was 4.36 µM (inactive) and the GI50 (EKVX) was 17.7 µM (inactive). For the same compound, the GI50 (HCT-116) was 5.35 µM (inactive), the GI50 (HCT-15) was 10.1 µM and the GI50 (HL-60) was 20.8 µM (inactive). For the same compound, the GI50 (HOP-62) was 18.2 µM (inactive), the GI50 (HOP-92) was 11.2 µM (inactive) and the GI50 (HT-29) was 7.82 µM (inactive). For the same compound, the GI50 (Hs-578T) was 15.7 µM (inactive), the GI50 (IGROV-1) was 14.9 µM (inactive) and the GI50 (K562) was 10.1 µM (inactive). For the same compound, the GI50 (KM12) was 13.2 µM (inactive), the GI50 (LOX IMVI) was 3.71 µM (inactive) and the GI50 (M14) was 17.1 µM (inactive). For the same compound, the GI50 (MCF7) was 19.4 µM (inactive), the GI50 (MDA-MB-231) was 4.91 µM (inactive) and the GI50 (MDA-MB-435) was 11.2 µM (inactive). The GI50 (MOLT-4) was 3.97 µM (inactive), the GI50 (Malme-3M) was 17.5 µM (inactive) and the GI50 (NCI-H226) was 12.9 µM (inactive). The GI50 (NCI-H23) was 16.5 µM (inactive), the GI50 (NCI-H460) was 16.6 µM (inactive) and the GI50 (NCI-H522) was 12 µM (inactive). For the same compound, the GI50 (NCI/ADR-RES) was 14.4 µM (inactive), the GI50 (OVCAR-3) was 2.96 µM (inactive) and the GI50 (OVCAR-4) was 19 µM (inactive). For the same compound, the GI50 (OVCAR-5) was 14 µM (inactive), the GI50 (OVCAR-8) was 18.5 µM (inactive) and the GI50 (PC-3) was 16.9 µM (inactive). For the same compound, the GI50 (RPMI-8226) was 2.78 µM (inactive), the GI50 (RXF 393) was 16.7 µM (inactive) and the GI50 (SF-268) was 15.9 µM (inactive). The GI50 (SF-295) was 16.8 µM (inactive), the GI50 (SF-539) was 15.8 µM (inactive) and the GI50 (SK-MEL-28) was 16.1 µM (inactive). The GI50 (SK-MEL-2) was 19.2 µM (inactive), the GI50 (SK-MEL-5) was 16.4 µM (inactive) and the GI50 (SK-OV-3) was 17.3 µM (inactive). The GI50 (SN12C) was 2.13 µM (inactive), the GI50 (SNB-19) was 18.8 µM (inactive) and the GI50 (SNB-75) was 22.9 µM (inactive). The GI50 (SR) was 4.17 µM (inactive), the GI50 (SW-620) was 7.06 µM (inactive) and the GI50 (T47D) was 5.51 µM (inactive). The GI50 (TK-10) was 17.3 µM (inactive), the GI50 (U-251) was 3.66 µM (inactive) and the GI50 (UACC-257) was 19.3 µM (inactive). The GI50 (UACC-62) was 14.3 µM (inactive) and the GI50 (UO-31) was 12.6 µM (inactive).
For Cc1cc(Br)cc(C)c1NC(=O)C(=O)C1C(=O)C(CC2C(=O)c3ccccc3C2=O)C(=O)CC1(C)C (stereo not drawn), the GI50 (786-0) was > 100 µM (inactive), the GI50 (A549) was 79.6 µM (inactive) and the GI50 (ACHN) was > 100 µM (inactive). For the same compound, the GI50 (BT-549) was > 100 µM (inactive), the GI50 (CAKI-1) was > 100 µM (inactive) and the GI50 (CCRF-CEM) was 41.7 µM (inactive). The GI50 (COLO 205) was > 100 µM (inactive), the GI50 (DU-145) was > 100 µM (inactive) and the GI50 (EKVX) was 50.8 µM (inactive). For the same compound, the GI50 (HCC 2998) was > 100 µM (inactive), the GI50 (HCT-116) was 83.2 µM (inactive) and the GI50 (HCT-15) was 63.5 µM. The GI50 (HL-60) was 28.5 µM (inactive), the GI50 (HOP-62) was > 100 µM (inactive) and the GI50 (HOP-92) was 55.3 µM (inactive). For the same compound, the GI50 (HT-29) was > 100 µM (inactive), the GI50 (Hs-578T) was > 100 µM (inactive) and the GI50 (IGROV-1) was 29.9 µM (inactive). The GI50 (KM12) was > 100 µM (inactive), the GI50 (LOX IMVI) was > 100 µM (inactive) and the GI50 (M14) was > 100 µM (inactive). For the same compound, the GI50 (MCF7) was 18.6 µM (inactive), the GI50 (MDA-MB-231) was 55 µM (inactive) and the GI50 (MDA-MB-435) was > 100 µM (inactive). For the same compound, the GI50 (MDA-N) was > 100 µM (inactive), the GI50 (MOLT-4) was 18.1 µM (inactive) and the GI50 (NCI-H226) was 67.5 µM (inactive). The GI50 (NCI-H23) was 84.1 µM (inactive), the GI50 (NCI-H460) was > 100 µM (inactive) and the GI50 (NCI-H522) was 44.5 µM (inactive). The GI50 (NCI/ADR-RES) was 86.5 µM (inactive), the GI50 (OVCAR-3) was > 100 µM (inactive) and the GI50 (OVCAR-4) was 39.5 µM (inactive). For the same compound, the GI50 (OVCAR-5) was > 100 µM (inactive), the GI50 (OVCAR-8) was > 100 µM (inactive) and the GI50 (PC-3) was 60.7 µM (inactive). The GI50 (RXF 393) was 3.66 µM (inactive), the GI50 (SF-268) was > 100 µM (inactive) and the GI50 (SF-295) was > 100 µM (inactive). The GI50 (SF-539) was > 100 µM (inactive), the GI50 (SK-MEL-28) was > 100 µM (inactive) and the GI50 (SK-MEL-2) was > 100 µM (inactive). For the same compound, the GI50 (SK-MEL-5) was > 100 µM (inactive), the GI50 (SK-OV-3) was > 100 µM (inactive) and the GI50 (SN12C) was > 100 µM (inactive). For the same compound, the GI50 (SNB-19) was > 100 µM (inactive), the GI50 (SNB-75) was > 100 µM (inactive) and the GI50 (SW-620) was > 100 µM (inactive). For the same compound, the GI50 (TK-10) was > 100 µM (inactive), the GI50 (U-251) was > 100 µM (inactive) and the GI50 (UACC-257) was > 100 µM (inactive). For the same compound, the GI50 (UACC-62) was 90.2 µM (inactive) and the GI50 (UO-31) was 16.8 µM (inactive).
COc1ccc2c(=O)c(-c3cc4c(cc3OC)OCO4)coc2c1 was tested, and the GI50 (786-0) was 60.1 µM (inactive), the GI50 (A498) was > 100 µM (inactive) and the GI50 (A549) was > 100 µM (inactive). The GI50 (ACHN) was 43.7 µM (inactive), the GI50 (BT-549) was > 100 µM (inactive) and the GI50 (CAKI-1) was 51.8 µM (inactive). For the same compound, the GI50 (CCRF-CEM) was > 100 µM (inactive), the GI50 (COLO 205) was > 100 µM (inactive) and the GI50 (DU-145) was > 100 µM (inactive). The GI50 (EKVX) was > 100 µM (inactive), the GI50 (HCC 2998) was > 100 µM (inactive) and the GI50 (HCT-116) was > 100 µM (inactive). The GI50 (HCT-15) was over 100 µM, the GI50 (HL-60) was > 100 µM (inactive) and the GI50 (HOP-62) was 41.9 µM (inactive). For the same compound, the GI50 (HOP-92) was 32.9 µM (inactive), the GI50 (HT-29) was > 100 µM (inactive) and the GI50 (Hs-578T) was > 100 µM (inactive). The GI50 (IGROV-1) was 58.9 µM (inactive), the GI50 (KM12) was > 100 µM (inactive) and the GI50 (LOX IMVI) was > 100 µM (inactive). For the same compound, the GI50 (M14) was > 100 µM (inactive), the GI50 (MCF7) was 97.3 µM (inactive) and the GI50 (MDA-MB-231) was 61.5 µM (inactive). For the same compound, the GI50 (MOLT-4) was > 100 µM (inactive), the GI50 (NCI-H226) was > 100 µM (inactive) and the GI50 (NCI-H23) was > 100 µM (inactive). The GI50 (NCI-H460) was > 100 µM (inactive), the GI50 (NCI-H522) was > 100 µM (inactive) and the GI50 (NCI/ADR-RES) was > 100 µM (inactive). The GI50 (OVCAR-3) was > 100 µM (inactive), the GI50 (OVCAR-4) was > 100 µM (inactive) and the GI50 (OVCAR-5) was > 100 µM (inactive). The GI50 (OVCAR-8) was 55.2 µM (inactive), the GI50 (PC-3) was > 100 µM (inactive) and the GI50 (RPMI-8226) was > 100 µM (inactive). The GI50 (SF-268) was 72.8 µM (inactive), the GI50 (SF-295) was 37.7 µM (inactive) and the GI50 (SF-539) was > 100 µM (inactive). For the same compound, the GI50 (SK-MEL-28) was > 100 µM (inactive), the GI50 (SK-MEL-2) was > 100 µM (inactive) and the GI50 (SK-MEL-5) was > 100 µM (inactive). For the same compound, the GI50 (SK-OV-3) was > 100 µM (inactive), the GI50 (SN12C) was > 100 µM (inactive) and the GI50 (SNB-19) was 52 µM (inactive). For the same compound, the GI50 (SNB-75) was 93.3 µM (inactive), the GI50 (SR) was > 100 µM (inactive) and the GI50 (SW-620) was > 100 µM (inactive). For the same compound, the GI50 (T47D) was > 100 µM (inactive), the GI50 (TK-10) was 56.1 µM (inactive) and the GI50 (U-251) was 59.2 µM (inactive). The GI50 (UACC-257) was > 100 µM (inactive), the GI50 (UACC-62) was > 100 µM (inactive) and the GI50 (UO-31) was > 100 µM (inactive).
